Source: US10745399B2 (priority 2015, dated 2020)

Test system: CHK2 phosphorylation (phospho-Thr68) in HCT116 cells
Assay: Cellular pCHK2 assay, bleomycin-induced phosphorylation of CHK2 (phospho-Thr68), immunofluorescence high content
Type: cell-based
Conditions: Homo sapiens, HCT-116; HCT116 cells, 10 μM bleomycin, 4 h; read-out: IC50 (pCHK2)
Text: For the identification of substances which inhibit the phosphorylation of the protein kinase CHK2 at the amino acid threonine 68, an immunofluorescence-based “high content” analysis assay was used in HCT116 cells.
In vitro cell-based immunofluorescence assay for the identification of inhibitors of bleomycin-induced phosphorylation of CHK2 (phospho-Thr68) in the human colon carcinoma cell line HCT116:
HCT116 cells are sown out in a defined cell density in 384-well plates in culture medium (DMEM high glucose, 2 mM GlutaMax, 1 mM Na pyruvate, 10% FCS) and incubated overnight at 37° C. and 10% of CO2. On the following day, the test substances are added in a defined concentration range (1 nM to 30 μM) in combination with 10 μM bleomycin, where the concentration of the solvent DMSO is kept constant at 0.5%. After incubation for four hours at 37° C. and 10% of CO2, the cells are fixed (5 min, 4% formaldehyde in PBS), permeabilised (10 min, 0.2% Triton X-100 in PBS) and, after blocking of nonspecific binding sites (10% goat serum, 1% BSA in PBS), incubated overnight at 4° C. with a specific anti-pCHK2 antibody (cell signalling #2661). pCHK2 (Thr68) is determined using an Alexa488-labelled secondary anti-rabbit IgG antibody. Parallel staining of DNA with propidium iodide enables determination of the cell count. The pCHK2 signal is detected using a high-content imager (Molecular Devices IMX Ultra) and automatic image analysis using the MetaXpress software belonging to the instrument. The number of cell nuclei which have a pCHK2 signal above a defined background is determined.

SMILES	IC50
COc1cnc(-n2c(=O)n(C)c3cnc4cc(OC)c(-c5cnn[nH]5)cc4c32)c(F)c1 [compound 128, 1-(3-Fluoro-5-methoxy-pyridin-2-yl)-7-methoxy-3-methyl-8-(3H-1,2,3-triazol-4-yl)-1,3-dihydroimidazo-[4,5-c]quinolin-2-one]	200 to 1000 nM
COc1cnc(-n2c(=O)n(C)c3cnc4cc(OC)c(-c5cn(C)nn5)cc4c32)c(F)c1 [compound 133, 1-(3-Fluoro-5-methoxy-pyridin-2-yl)-7-methoxy-3-methyl-8-(1-methyl-1H-1,2,3-triazol-4-yl)-1,3-dihydroimidazo[4,5-c] quinolin-2-one]	200 to 1000 nM
COc1cc2ncc3c(c2cc1-c1cnn(C)n1)n(-c1cn(C)nc1C)c(=O)n3C [compound 102, 1-(1,3-Dimethyl-1H-pyrazol-4-yl)-7-methoxy-3-methyl-8-(2-methyl-2H-1,2,3-triazol-4-yl)-1,3-dihydroimidazo-[4,5-c]quinolin-2-one]	< 200 nM
COc1cc2ncc3c(c2cc1-c1cnn(C(F)F)c1)n(-c1c(F)cncc1OC)c(=O)n3C [compound 143, 8-(1-Difluoromethyl-1H-pyrazol-4-yl)-1-(3-fluoro-5-methoxypyridin-4-yl)-7-methoxy-3-methyl-1,3-dihydroimidazo[4,5-c] quinolin-2-one]	200 to 1000 nM
COc1cc2ncc3c(c2cc1-c1cnn(C)n1)n(-c1c(F)cncc1OC)c(=O)n3C [compound 127, 1-(3-Fluoro-5-methoxy-pyridin-4-yl)-7-methoxy-3-methyl-8-(2-methyl-2H-1,2,3-triazol-4-yl)-1,3-dihydroimidazo[4,5-c] quinolin-2-one]	200 to 1000 nM
CCn1cc(-n2c(=O)n(C)c3cnc4cc(OC)c(-c5cnn(C)c5)cc4c32)c(C)n1 [compound 130, 1-(1-Ethyl-3-methyl-1H-pyrazol-4-yl)-7-methoxy-3-methyl-8-(1-methyl-1H-pyrazol-4-yl)-1,3-dihydro-imidazo[4,5-c]quinolin-2-one]	200 to 1000 nM
COc1cc2ncc3c(c2cc1-c1cnn(C)c1)n(-c1ccc(C#N)cn1)c(=O)n3C [Compound Example 48, 6-[7-Methoxy-3-methyl-8-(1-methyl-1H-pyrazol-4-yl)-2-oxo-2,3-dihydroimidazo-[4,5-c]quinolin-1-yl]-nicotinonitrile]	200 to 1000 nM
COc1cnc(-n2c(=O)n(C)c3cnc4cc(OC)c(-c5ccc6nc[nH]c6c5)cc4c32)c(F)c1 [compound 153, 8-(3H-Benzimidazol-5-yl)-1-(3-fluoro-5-methoxypyridin-2-yl)-7-methoxy-3-methyl-1,3-dihydroimidazo[4,5-c]-quinolin-2-one]	200 to 1000 nM
COc1cc2ncc3c(c2cc1-c1cn(C)nn1)n(-c1c(C)cncc1F)c(=O)n3C [compound 63, 1-(3-Fluoro-5-methylpyridin-4-yl)-7-methoxy-3-methyl-8-(1-methyl-1H-1,2,3-triazol-4-yl)-1,3-dihydroimidazo-[4,5-c]quinolin-2-one]	200 to 1000 nM
CCc1cnccc1-n1c(=O)n(C)c2cnc3cc(OC)c(-c4cnn(C)c4)cc3c21 [compound 156, 1-(3-Ethylpyridin-4-yl)-7-methoxy-3-methyl-8-(1-methyl-1H-pyrazol-4-yl)-1,3-dihydroimidazo[4,5-c] quinolin-2-one]	200 to 1000 nM
COc1cc2ncc3c(c2cc1-c1cnn(C)n1)n(-c1ncccc1F)c(=O)n3C [compound 158, 1-(3-Fluoropyridin-2-yl)-7-methoxy-3-methyl-8-(2-methyl-2H-1,2,3-triazol-4-yl)-1,3-dihydroimidazo-[4,5-c]quinolin-2-one]	200 to 1000 nM
COc1cc2ncc3c(c2cc1-c1cnn(C)c1)n(-c1ccc2ccccc2n1)c(=O)n3C [compound 68, 7-Methoxy-3-methyl-8-(1-methyl-1H-pyrazol-4-yl)-1-quinolin-2-yl-1,3-dihydro-imidazo[4,5-c]quinolin-2-one]	1000 to 2000 nM
CCn1cc(-n2c(=O)n(C)c3cnc4cc(OC)c(-c5cn(C)nc5C)cc4c32)c(C)n1 [compound 135, 8-(1,3-Dimethyl-1H-pyrazol-4-yl)-1-(1-ethyl-3-methyl-1H-pyrazol-4-yl)-7-methoxy-3-methyl-1,3-dihydro-imidazo[4,5-c]quinolin-2-one]	200 to 1000 nM
COc1cc2ncc3c(c2cc1-c1n[nH]cc1C)n(-c1cn(C)nc1C)c(=O)n3C [compound 151, 1-(1,3-Dimethyl-1H-pyrazol-4-yl)-7-methoxy-3-methyl-8-(4-methyl-1H-pyrazol-3-yl)-1,3-dihydroimidazo[4,5-c] quinolin-2-one]	< 200 nM
[2H]C([2H])([2H])Oc1cncc(F)c1-n1c(=O)n(C)c2cnc3cc(OC)c(-c4cn(C)nc4C)cc3c21 [compound 150, 8-(1,3-Dimethylpyrazol-4-yl)-1-[3-fluoro-5-(trideuterio-methoxy)-4-pyridyl]-7-methoxy-3-methyl-imidazo-[4,5-c]quinolin-2-one]	< 200 nM
COc1cc2ncc3c(c2cc1-c1cnn(C2CNC2)c1)n(-c1c(F)cncc1OC)c(=O)n3C [compound 208, 8-[1-(Azetidin-3-yl)-1H-pyrazol-4-yl]-1-(3-fluoro-5-methoxypyridin-4-yl)-7-methoxy-3-methyl-1H,2H,3H-imidazo[4,5-c]-quinolin-2-one]	1000 to 2000 nM
COc1cc2ncc3c(c2cc1-c1cnn(C)c1)n(-c1c(F)cncc1OC(F)F)c(=O)n3C [compound 146, 1-(3-Difluoromethoxy-5-fluoropyridin-4-yl)-7-methoxy-3-methyl-8-(1-methyl-1H-pyrazol-4-yl)-1,3-dihydroimidazo[4,5-c]-quinolin-2-one]	< 200 nM
COc1cc2ncc3c(c2cc1-c1cnn(C)c1)n(-c1ccc2cc[nH]c2n1)c(=O)n3C [compound 69, 7-Methoxy-3-methyl-8-(1-methyl-1H-pyrazol-4-yl)-1-(1H-pyrrolo[2,3-b]pyridin-6-yl)1,3-dihydroimidazo-[4,5-c]quinolin-2-one]	200 to 1000 nM
COc1cc2ncc3c(c2cc1-c1ccc2nc(C)[nH]c2c1)n(-c1cn(C)nc1C)c(=O)n3C [compound 132, 1-(1,3-Dimethyl-1H-pyrazol-4-yl)-7-methoxy-3-methyl-8-(2-methyl-3H-benzo-imidazol-5-yl)-1,3-dihydro-imidazo[4,5-c]quinolin-2-one]	200 to 1000 nM
COc1cc2ncc3c(c2cc1-c1cn(C)nc1C)n(-c1ncc(OCS(C)(=O)=O)cc1F)c(=O)n3C [compound 203, 8-(1,3-Dimethyl-1H-pyrazol-4-yl)-1-(3-fluoro-5-methyl-sulfonylmethoxypyridin-2-yl)-7-methoxy-3-methyl-1,3-dihydroimidazo[4,5-c]-quinolin-2-one]	200 to 1000 nM
COc1cc2ncc3c(c2cc1-c1cn(C)nn1)n(-c1ccncc1F)c(=O)n3C [compound 64, 1-(3-Fluoropyridin-4-yl)-7-methoxy-3-methyl-8-(1-methyl-1H-1,2,3-triazol-4-yl)-1,3-dihydroimidazo-[4,5-c]quinolin-2-one]	200 to 1000 nM
CCc1cncc(F)c1-n1c(=O)n(C)c2cnc3cc(OC)c(-c4cnn(C)n4)cc3c21 [compound 112, 1-(3-Ethyl-5-fluoropyridin-4-yl)-7-methoxy-3-methyl-8-(2-methyl-2H-1,2,3-triazol-4-yl)-1,3-dihydroimidazo-[4,5-c]quinolin-2-one]	200 to 1000 nM
COc1cc2ncc3c(c2cc1-c1cnn(C)c1)n(-c1ccccn1)c(=O)n3C [Compound Example 56, 7-Methoxy-3-methyl-8-(1-methyl-1H-pyrazol-4-yl)-1-pyridin-2-yl-1,3-dihydro-imidazo[4,5-c]quinolin-2-one]	200 to 1000 nM

Target: mTOR (human) (Homo sapiens (Human), UniProt P42345)
Assay: mTOR (human) radiometric kinase assay
Type: biochemical
Conditions: IC50 (ATM) at least 2000 times higher compared with IC50 (mTOR)
Experimental: mTOR (human) was incubated with 50 mM HEPES pH 7.5, 1 mM EGTA, 0.01% Tween 20, 2 mg/ml of the substrate, 3 mM MnCl2 and [γ-^33P-ATP] (specific activity approximately 500 cpm/pmol, concentration as necessary). The reaction was initiated by addition of MgATP solution. After incubation at room temperature for 40 minutes, the reaction was stopped by addition of 3% phosphoric acid. 10 μl of the reaction solution were then transferred dropwise onto a P30 filtermat and washed three times for 5 min in 75 mM phosphoric acid and once in methanol, dried and evaluated by means of liquid scintillation counting.

SMILES	ratio IC50 (ATM):IC50(mTOR), selectivity with respect to mTOR
COc1cc2ncc3c(c2cc1-c1cnn(C)c1)n(-c1cc2[nH]ccc2cn1)c(=O)n3C [compound 120, 7-Methoxy-3-methyl-8-(1-methyl-1H-pyrazol-4-yl)-1-(1H-pyrrolo[3,2-c]pyridin-6-yl)-1,3-dihydroimidazo-[4,5-c]quinolin-2-one]	at least 2000 times
CCc1cncc(F)c1-n1c(=O)n(C)c2cnc3cc(OC)c(-c4cn[nH]n4)cc3c21 [compound 125, 1-(3-Ethyl-5-fluoropyridin-4-yl)-7-methoxy-3-methyl-8-(2H-1,2,3-triazol-4-yl)-1,3-dihydroimidazo[4,5-c] quinolin-2-one]	at least 2000 times
COc1cc2ncc3c(c2cc1-c1cnn(C)c1)n(-c1ncc(OCS(C)(=O)=O)cc1F)c(=O)n3C [compound 201, 1-(3-Fluoro-5-methyl-sulfonylmethoxypyridin-2-yl)-7-methoxy-3-methyl-8-(1-methyl-1H-pyrazol-4-yl)-1,3-dihydroimidazo[4,5-c]-quinolin-2-one]	at least 2000 times
